Reference: US20260022334A1, “COMPOSITION, METHOD, AND APPLICATION THEREOF FOR IMPROVING THE QUALITY OF IN VITRO MATURATION OF OOCYTES AND PREGNANCY RATE OF EMBRYOS AFTER IN VITRO FERTILIZATION” (CHINA AGRICULTURAL UNIVERSITY, priority 2024, published 2026)
Marks after values point to notes of the source that are not given here.

Columns and labels:
bovine oocytes (COCs) = assay: In vitro maturation of bovine oocytes, in vitro fertilization and embryo culture: embryo development rate; format: cell-based; conditions: for D8 blastocyst rate (%): 8 d postinsemination, number of blastocysts/number of oocytes; for effect on 48-h cleavage rate compared with the control group / effect on blastocyst development efficiency compared with the control group: in words; for 48-h cleavage rate (%): number of two-cell embryos/number of oocytes
Protocol: (§1) • Control group: a routine in vitro maturation group; • Treatment group 1: a VitC (100 μg/mL)—only administration group; • Treatment group 2: an L-carnitine (1 mg/mL)—only administration group; • Treatment group 3: a THPO (200 ng/mL)—only administration group; • Treatment group 4: a VitC (50 μg/mL) and L-carnitine (500 μg/mL) combined administration group; • Treatment group 5: a VitC (50 μg/mL) and THPO (100 ng/ml) combined administration group; • Treatment group 6: an L-carnitine (500 μg/mL) and THPO (100 ng/mL) combined administration group; • Treatment group 7: a VitC (33.3 μg/mL), L-carnitine (333.3 μg/mL), and THPO (66.7 ng/mL) combined administration group.
(§2) The control group was a basal in vitro maturation medium, and the treatment groups (1-7) were prepared by adding different components or combined components to the basal maturation medium.
Bovine ovaries were collected from a local slaughterhouse (Dachang Hui Autonomous County, Hebei Province, China) and transported to the laboratory within two hours in saline solution containing penicillin and streptomycin. In the laboratory, bovine COCs were aspirated from follicles with a diameter of 2-8 mm to M199-HEPES containing 20 μg/mL heparin sodium, 44 μg/mL sodium pyruvate, 70 μg/mL penicillin and 50 μg/mL streptomycin. The aspirated follicular fluid was placed in 50 ml conical tubes and maintained for a period for sedimentation. The upper portion of the liquid was removed and the remaining portion was then transferred to wash buffer. COCs with a homogenous, evenly granulated ooplasm surrounded by at least three layers of compact cumulus cells were selected under a stereomicroscope for experiments. COCs were washed three times in BO-IVM medium and incubated for 22 h at 38.5° C. in a humidified atmosphere under 5% CO2 in groups of 50 containing 500 μL BO-IVM medium in four-well dishes covered with mineral oil.
After 22 h of IVM, 20 COCs were transferred to 100 μL BO-IVF medium covered with mineral oil in Petri dish (60×15 mm). Frozen-thawed sperm was purified using BO-SemenPrep. Spermatozoa were selected by Percoll method and the final concentration was adjusted to 1×10^6 in each drop. They were co-incubated in BO-IVF medium with humidified 5% CO2 in air at 38.5° C. for 18 h. Thereafter, the presumptive zygotes were transferred to BO-IVC medium in four-well dishes covered with mineral oil, and incubated with humidified 5% CO2 in air at 38.5° C. for 8 days. The cleavage rate was determined at 48 h and the blastocyst rate was estimated at 8d postinsemination.

bovine recipients = assay: Bovine embryo transfer and pregnancy rate assessment; format: in vivo; conditions: for Number of pregnancies: B-mode ultrasonography days 45-50; for Pregnancy rate (%): days 45-50, pregnant/recipient female animals
Protocol: as §1
The bovine recipients were restrained and anesthetized according to requirement of sartificial insemination. After the vulva was cleaned and disinfected, the cervix was opened and the fallopian tubes were flushed. The embryo transfer catheter was inserted deep into one uterine horn using the rectal palpation method. The plunger of a syringe connected to embryos transfer catheter was pushed to inject the embryos that had developed to the blastocyst stage after in vitro fertilization, and the embryo transfer catheter was then withdrawn. The pregnancy status was assessed by B-mode ultrasonography on days 45-50 of pregnancy, and the pregnancy rate was calculated.

[1] = tested on: ovine oocytes (cumulus-oocyte complexes); assay: In vitro maturation of ovine oocytes, in vitro fertilization and embryo culture: embryo development rate; format: cell-based, sheep; conditions: mean ± standard error; for Cleavage rate (%): 48 h after IVF, modulators added to in vitro maturation medium; for D7 blastocyst rate (%): day 7 of culture
Protocol: Ovine ovaries were collected in a slaughterhouse, placed in normal saline at 35° C., and transported to the laboratory within 2 h. The ovaries were washed three times with normal saline, and follicles were punctured using a 20 G needle containing 5 mL of oocyte collection medium to release cumulus-oocyte complexes. The COCs with uniform cytoplasm and at least 3 layers of cumulus cells were collected Under a stereomicroscope.
as §1, with “maturation group.” for “maturation group;”, “administration group.” for “administration group;”, “(100 ng/ml)” for “(100 ng/mL)”
as §2
The collected ovine oocytes were washed three times with washing medium, then washed 3 times with the basal in vitro oocyte maturation medium pre-equilibrated for 3 h in advance, transferred to the in vitro maturation culture mediums of the control and experimental groups, and incubated in a 5% CO2, 38.5° C. incubator with saturated humidity for 22-24 h. Four-well plates were used for culture, and each well contained 600 μL of in vitro maturation culture medium and 30-35 ovine cumulus-oocyte complexes, and was covered with 300 μL of mineral oil. In vitro maturation of ovine oocytes was performed according to different groups.
For the control group, the basal in vitro oocyte maturation medium was used. The basal in vitro oocyte maturation medium was prepared as follows: TCM199+10% estrus ovine serum+1 μg/mL follicle-stimulating hormone+1 μg/mL luteinizing hormone+1 μg/mL β-estradiol+12 μg/mL DL-cysteine+100 μg/mL streptomycin+100 IU/mL penicillin.
After in vitro maturation, the matured oocytes were subjected to in vitro fertilization (IVF). Briefly, COCs were washed three times in synthetic oviductal fluid (SOF) medium with 0.2% hyaluronidase to remove cumulus cells and transferred into the IVF medium, which consisted of synthetic oviduct fluid (SOF) medium containing 2% estrus sheep serum (ESS), 3 mg/mL BSA, 6 IU/mL heparin sodium and 50 IU/mL gentamicin. For IVF, frozen semen was removed from the liquid nitrogen and thawed in a water bath at 39° C. for 1 min. Then, the sperm diluted with IVF medium and swimming up for 30 min at 38.5° C. in a humidified atmosphere at 5% CO2. The upper layer of semen was transferred into a 1.5 mL tube and then centrifuge for 5 min at 2000 rpm. The spermatozoa were carefully collected from the bottom of the centrifuge tube and added into each IVF medium with a final concentration of approximately 1×10^6 sperm/mL. Then, the oocyte and sperm were co-incubated for 20 h at 38.5° C. with 5% CO2 in a humidified atmosphere. All reagents were purchased from Sigma-Aldrich.
After IVF, presumptive zygotes were washed three times in IVC medium and then transferred to SOF medium supplemented with 1% BME-essential amino acids, 1% MEM-nonessential amino acids, 1 mM glutamine and 3 mg/mL BSA and cultured at 38.6° C. in a humidified environment with an 88% N2, 5% CO2, 7% O2. The cleavage rate and blastocyst rate were recorded at 48 h and 6-7 d after IVF. After 48 h of culture, the cleavage rate was calculated. The culture was continued until day 7, and the blastocyst rate was calculated.

recipient ewes = assay: Ovine embryo transfer and pregnancy assessment; format: in vivo, sheep; conditions: for Pregnancy rate (%): 45 d after embryo transfer; for Number of pregnancies: B-ultrasonography 45 d after embryo transfer
Protocol: as §1, with “maturation group.” for “maturation group;”, “administration group.” for “administration group;”, “(100 ng/ml)” for “(100 ng/mL)”
Transferrable embryo were selected and one blastocyst was transferred into recipient ewes using a laparoscopic procedure. Prior to embryo transfer, the ewes were fasted for at least 20 h. The embryos were transplanted into recipients with an assistant of endoscopic apparatus. The conception was detected at 45 d after embryo transfer by using B-ultrasonography and the embryo transfer pregnancy rate was calculated using the formula: […]

ovine blastocysts = assay: Total number of blastocyst cells (DAPI staining) after in vitro maturation of ovine oocytes; format: cell-based, sheep; conditions: ovine 7d blastocysts, FIG. 3
Text: FIG. 3 Statistical analysis of the total number of blastocyst cells after different treatments of sheep oocyte in vitro maturation. Among them, the control group is a routine in vitro maturation group, and treatment groups 1-7 are: VitC alone group, L-carnitine alone group, THPO alone group, VitC and L-carnitine combined administration group, VitC and THPO combined administration group, L-carnitine and THPO combined administration group, VitC, L-carnitine, and THPO combined administration group. The total number of blastocyst cells were obtained by counting cells after DAPI immunofluorescence staining.
as §1, with “maturation group.” for “maturation group;”, “administration group.” for “administration group;”, “(100 ng/ml)” for “(100 ng/mL)”
The 7d blastocysts were collected, washed 3 times with PBS containing 1 mg/ml PVA (PBS-PVA), and stained with DAPI, and the total blastocyst cell number was then determined. Specifically, the zona pellucida was removed with Tyrode's medium, and the blastocysts were then fixed in PBS containing 4% polyformaldehyde for 30 min and permeabilized using PBS containing 0.5% TritonX-100 for 20 min at room temperature. The nuclei of the blastocysts were stained with 1 μg/mL DAPI, incubated for 5 min in the dark, and then mounted onto slides. DAPI cells were observed and counted under a fluorescence microscope.

Compound | D8 blastocyst rate (%) (bovine oocytes (COCs)) | effect on 48-h cleavage rate compared with the control group (bovine oocytes (COCs)) | effect on blastocyst development efficiency compared with the control group (bovine oocytes (COCs)) | 48-h cleavage rate (%) (bovine oocytes (COCs)) | Number of pregnancies (bovine recipients) | Pregnancy rate (%) (bovine recipients) | Cleavage rate (%) [1] | D7 blastocyst rate (%) [1] | Pregnancy rate (%) (recipient ewes) | Number of pregnancies (recipient ewes) | total number of blastocyst cells (ovine blastocysts) | effect on pregnancy rate after embryo transfer compared with the control group (bovine recipients; in words)
O=C1O[C@H]([C@@H](O)CO)C(O)=C1O [Treatment group 1, vitamin C] | 33.1 ± 1.3^b % | did not affect | enhanced | 68.7 ± 3.1 | 11 | 42.3%^a | 75.64 ± 2.83^a % | 38.79 ± 1.97^b % | 50.0^a % | 25 | 80.6±3.2 | 
C[N+](C)(C)C[C@H](O)CC(=O)[O-] [Treatment group 2, L-carnitine] | 32.4 ± 0.8^b % | did not affect | enhanced | 69.5 ± 4.3 | 12 | 46.2%^b | 74.32 ± 2.31^a % | 37.61 ± 1.85^b % | 54.2^a % | 26 | 82.6±2.7 | can improve
Thrombopoietin [Treatment group 3] | 32.2 ± 2.0^b % |  |  | 67.4 ± 3.8 | 11 | 42.3%^a | 75.38 ± 2.43^a % | 38.01 ± 1.50^b % | 53.1^a % | 26 | 79.4±2.3 | 
